Measured values: the supplement of paper PMC10627819

Columns and labels:
[1] = system: B. subtilis 168; test: fitness (endpoint OD595 vs no drug) (fraction); higher = more growth
In short: (§1)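 Bacterial fitness was scored as optical density at the stationary-phase transition relative to the robust mean of no-drug control wells. Scores are capped at 1. The growth data were OD595 readings every 30 min for 14 h at 37 °C, background-subtracted against the first reading, from 384-well plates inoculated at OD595 0.01 in TSB, LB Lennox or CY.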

[2] = system: S. aureus DSM 20231; test: as above
In short: as §1

[3] = system: S. aureus Newman; test: as above
In short: as §1

[4] = system: S. pneumoniae D39V; test: as above
In short: as §1

[5] = system: B. subtilis 168; test: Bliss interaction score (quartile over a dose matrix) (fitness difference); higher = more antagonism (negative = synergy)
In short: (§2)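 Fitness was defined as normalised growth: OD595 at the start of stationary phase divided by the plate's robust no-drug mean and capped at 1. Single-drug fitness was inferred from combination measurements. The Bliss score is observed fitness minus the product of the single-drug values, summarised by quartiles across technical, biological and donor/recipient replicates.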

[6] = system: S. aureus DSM 20231; test: as above
In short: as §2

[7] = system: S. aureus Newman; test: as above
In short: as §2

[8] = system: S. pneumoniae D39V; test: as above
In short: as §2
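Throughout, for Bliss interaction score (quartile over a dose matrix): first quartile when negative (synergy) and third quartile when positive (antagonism).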
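Throughout, for fitness (endpoint OD595 vs no drug): OD595 on entry to stationary phase over no-drug wells; at most 1.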

Cc1onc(-c2ccccc2)c1C(=O)N[C@@H]1C(=O)N2[C@@H]1SC(C)(C)[C@@H]2C(=O)O [Oxacillin] + COc1ccc(C[C@H](N)C(=O)N[C@H]2[C@@H](O)[C@H](n3cnc4c(N(C)C)ncnc43)O[C@@H]2CO)cc1 [Puromycin]
Settings	fitness
[1], first compound 0.002 µg/mL, partner 0.39 µg/mL	0.98
[1], first compound 0.002 µg/mL, partner 0.78 µg/mL	0.966
[1], first compound 0.002 µg/mL, partner 1.56 µg/mL	0.932
[1], first compound 0.004 µg/mL, partner 0.39 µg/mL	0.974
[1], first compound 0.004 µg/mL, partner 0.78 µg/mL	0.914
[1], first compound 0.004 µg/mL, partner 1.56 µg/mL	0.9
[1], first compound 0.008 µg/mL, partner 0.39 µg/mL	0.88
[1], first compound 0.008 µg/mL, partner 0.78 µg/mL	0.879
[1], first compound 0.008 µg/mL, partner 1.56 µg/mL	0.864
[2], first compound 0.0156 µg/mL, partner 0.39 µg/mL	0.84
[2], first compound 0.0156 µg/mL, partner 0.78 µg/mL	0.902
[2], first compound 0.0156 µg/mL, partner 1.56 µg/mL	0.91
[2], first compound 0.0312 µg/mL, partner 0.39 µg/mL	0.72
[2], first compound 0.0312 µg/mL, partner 0.78 µg/mL	0.737
[2], first compound 0.0312 µg/mL, partner 1.56 µg/mL	0.748
[2], first compound 0.0625 µg/mL, partner 0.39 µg/mL	0.481
[2], first compound 0.0625 µg/mL, partner 0.78 µg/mL	0.555
[2], first compound 0.0625 µg/mL, partner 1.56 µg/mL	0.546
[3], first compound 0.0156 µg/mL, partner 0.78 µg/mL	0.85
[3], first compound 0.0156 µg/mL, partner 1.56 µg/mL	0.806
[3], first compound 0.0312 µg/mL, partner 0.39 µg/mL	0.765
[3], first compound 0.0312 µg/mL, partner 0.78 µg/mL	0.788
[4], first compound 0.01 µg/mL, partner 1 µg/mL	≥ 1
[4], first compound 0.01 µg/mL, partner 2 µg/mL	0.969
[4], first compound 0.01 µg/mL, partner 4 µg/mL	0.918
[4], first compound 0.02 µg/mL, partner 1 µg/mL	0.984
[4], first compound 0.02 µg/mL, partner 2 µg/mL	0.949
[4], first compound 0.02 µg/mL, partner 4 µg/mL	0.863
[4], first compound 0.04 µg/mL, partner 1 µg/mL	0.668
[4], first compound 0.04 µg/mL, partner 2 µg/mL	0.644
[4], first compound 0.04 µg/mL, partner 4 µg/mL	0.281

fitness, one replicate
Settings	first compound 0.0156 µg/mL	first compound 0.0312 µg/mL	first compound 0.0625 µg/mL	first compound 0.075 µg/mL	first compound 0.15 µg/mL	first compound 0.3 µg/mL
[1], partner 0.39 µg/mL	–	–	–	0.523	0.0695	0.0402
[1], partner 0.78 µg/mL	–	–	–	0.645	0.0521	0.0336
[1], partner 1.56 µg/mL	–	–	–	0.632	0.0547	0.0573
[2], partner 3.12 µg/mL	0.887	0.788	0.66	–	–	–
[2], partner 6.24 µg/mL	0.609	0.606	0.548	–	–	–

Settings	Bliss interaction score
[5]	0.0568
[6]	0.0572
[7]	0.0763
[8]	0.167

Cc1onc(-c2ccccc2)c1C(=O)N[C@@H]1C(=O)N2[C@@H]1SC(C)(C)[C@@H]2C(=O)O [Oxacillin] + CN[C@@H]1[C@H](O)[C@H](NC)[C@H]2O[C@@]3(O)C(=O)C[C@@H](C)O[C@H]3O[C@@H]2[C@H]1O [Spectinomycin]
fitness
Settings	partner 2 µg/mL	partner 4 µg/mL	partner 8 µg/mL	partner 16 µg/mL
[1], first compound 0.002 µg/mL	0.966	0.984	0.899	–
[1], first compound 0.004 µg/mL	≥ 1	≥ 1	0.874	–
[1], first compound 0.008 µg/mL	0.982	0.993	0.87	–
[2], first compound 0.0156 µg/mL	–	0.779	0.802	0.764
[2], first compound 0.0312 µg/mL	–	0.681	0.684	0.665
[2], first compound 0.0625 µg/mL	–	0.482	0.497	0.489
[3], first compound 0.0156 µg/mL	–	0.757	0.751	0.766
[3], first compound 0.0312 µg/mL	–	0.688	0.672	0.586
[3], first compound 0.0625 µg/mL	–	0.596	0.555	0.528
[4], first compound 0.01 µg/mL	–	0.94	0.93	0.819
[4], first compound 0.02 µg/mL	–	0.884	0.889	0.788
[4], first compound 0.04 µg/mL	–	0.373	0.455	0.415

fitness, one replicate
Settings	first compound 0.0156 µg/mL	first compound 0.0312 µg/mL	first compound 0.0625 µg/mL	first compound 0.075 µg/mL	first compound 0.15 µg/mL	first compound 0.3 µg/mL
[1], partner 2 µg/mL	–	–	–	0.467	0.0332	0.0357
[1], partner 4 µg/mL	–	–	–	0.394	0.034	0.0431
[1], partner 8 µg/mL	–	–	–	0.0241	0.0342	0.0299
[2], partner 32 µg/mL	0.601	0.628	0.509	–	–	–
[2], partner 64 µg/mL	0.0615	0.0592	0.0362	–	–	–
[3], partner 32 µg/mL	0.483	0.272	0.135	–	–	–
[3], partner 64 µg/mL	0.0551	0.0867	0.0035	–	–	–

Settings	Bliss interaction score
[5]	0.0285
[6]	-0.0526
[7]	-0.0743
[8]	0.0929
